Columns and labels:
Format in all cases: biochemical
[1] = tested on: CCNTB1; experiment: In vitro transcription-translation (IVTT) assay, CCNTB1 reporter; details: HeLa S3 lysate, 2 hrs at 30° C.
Procedure: Each preparation takes 8 cell pellets (4 ml packed volume each, approximately 1.0×10^9 cells per pellet). Thaw cell pellets from −80° C. on ice for 90 mins. Lay pellets horizontally on top of the ice and rotate every 30 mins to ensure even thawing. Once thawed, add 4 mL of cold lysis buffer to each pellet, and using a serological pipet, gently pipet up and down to break up clumps. Incubate resuspended cells in ice for an additional 30 mins (plunged into ice). During 30 min incubation, rinse and RNase-zap (Ambion) glass dounces (use loose pestle “A”), gently dry and place on ice until needed. Prepare RNase-free Eppendorf tubes for spinning and for batch storage. Add batch labels to 1.5-1.7 mL RNase-free microcentrifuge tubes (labeling scheme below). Each batch will have an extra 1.5-1.7 mL RNase-free microcentrifuge tube for 40 μL of lysate, label the top of this tube (labeling scheme below). After 30 min incubation, transfer all 8 mL of cell pellet to dounce. Cell lysis is complete after douncing 100 times. Aliquot cell lysis into 1.5-1.7 mL temporary-microcentrifuge tubes. Place tubes in centrifuge with “fins” out, and spin at 1,200×g for 5 mins. After the first spin use a 1 mL pipet to resuspend each tube and repeat spin. This acts as an additional lysis step, is more vigorous and increases lysate yield. During second spin get liquid N2 and a fresh conical tube on ice. After spin is complete, transfer supernatant (lysate) from microcentrifuge tubes into the 50 mL conical tube and keep on ice. Repeat steps 10-14 for all other cell pellets until completed. Once all cell lysate has been transferred to the 50 mL conical tube pipet to mix so the solution is homogenous. Transfer 1 mL of lysate into batch-labeled microcentrifuge tubes and flash freeze in liquid nitrogen. Be sure to pipet up and down to mix throughout transfer step. Place all tubes in the […] for long-term storage.
In vitro transcription-translation assay setup: Each assay includes a master mix containing lysate and shared components, a 96-well plate containing compound titrations for testing, a 96-well DNA plate with reporter constructs to be tested, 96-well skirted PCR plates, and 96-well flat-bottom, black, fluorescent assay plates. Reaction materials setup: (A) Master mix—15 mL conical tube (3 mL of HeLa S3 Lysate described above; 0.6 mL of ThermoFisher Accessory Proteins (#88882); 1.2 ml of ThermoFisher Reaction Mix (#88882); 0.54 mL of nuclease-free Water); (B) 96-Well Master Mix+Compound Plate (Half-log dilutions (30 μM−0.1 μM) of 4 compounds of interest are prepared in 100% DMSO); 96-Well DNA Plate (Five DNA constructs are plated into single columns within the plate. Row 1 of the column contains nuclease free H2O, all other wells contain 110 ng/μL plasmid DNA). Reactions are started by mixing 155 μL of master mix and 3.5 μL of compound serial dilutions, then 9.1 μL of master mix+compound mixture is aliquoted across 5 96-well plates. Reactions begin with final addition of 2 μL of DNA for a 11.1 μL reaction volume in each well. The entire plate is sealed, and incubated for 2 hrs at 30° C. After 2 hrs, quench the assay using 45 μL of PBS, and transfer 50 μL to a flat-bottom black microplate Quantify the sfGFP and mCherry signals from each well on each plate, taking 3 reads of each plate, and perform data analysis below.
In vitro transcription-translation assay data analysis: Each plate is read three times in channels for both sfGFP and mCherry signals. The average signal across these 3 reads is then calculated for further analysis. Control wells containing no DNA reporter are subtracted from reporter wells in the same column to remove auto-fluorescence of the lysate. Then, the ratio of sfGFP/mCherry is calculated per well, and these ratios are averaged across the triplicate experiments on the same plate. Finally, the ratio of each titration concentration is normalized to the no drug control to create the normalized stalling metric. […]

[2] = tested on: MCL-1; experiment: In vitro transcription-translation (IVTT) assay, MCL-1 reporter; details: IVTT, HeLa S3 lysate, 2 hrs at 30° C.; read-out: MCL1 IC50
In short: (§1)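 Reporter: mCherry, P2A, then 3×FLAG-target peptide-sfGFP fusion, IRES-initiated; HeLa S3 lysate IVTT; cpd dilutions 30 μM−0.1 μM half-log in 100% DMSO (dilution-plate conc); DNA added last; 2 h, 30° C; PBS quench.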

[3] = tested on: MYC; experiment: In vitro transcription-translation (IVTT) assay, MYC reporter; details: IVTT assay, HeLa S3 lysate, MYC reporter, normalized sfGFP/mCherry ratio; half-log dilutions 30 μM-0.1 μM, 2 hrs at 30° C.
In short: as §1

[4] = tested on: CCND1; experiment: In vitro transcription-translation (IVTT) assay, CCND1 reporter; details: IVTT, HeLa S3 lysate, 2 hrs at 30° C.
In short: as §1

| SMILES | IC50 [1] [µM] | IC50 [2] [µM] | IC50 [4] [µM] | IC50 [3] [µM] |
| --- | --- | --- | --- | --- |
| COc1ccc(C[C@H]2NC[C@H](O)[C@H]2OC(=O)NCc2ccnc3c2CCN3)cc1 [V188360, (2R,3S,4S)-4-hydroxy-2-[(4-methoxyphenyl)methyl]pyrrolidin-3-yl N-{1H,2H,3H-pyrrolo[2,3-b]pyridin-4-ylmethyl}carbamate] | < 10 | < 10 | < 10 | < 10 |
| COc1ccc(C[C@H]2NC[C@H](O)[C@H]2OC(=O)NCc2ccc(Cl)s2)cc1 [V188373, (2R,3S,4S)-4-hydroxy-2-[(4-methoxyphenyl)methyl]pyrrolidin-3-yl N-[(5-chlorothiophen-2-yl)methyl]carbamate] | < 10 | < 10 | < 10 | < 10 |
| COc1ccc(C[C@H]2NC[C@H](O)[C@H]2OC(=O)NCC2(F)CC2)cc1 [V188381, (2R,3S,4S)-4-hydroxy-2-[(4-methoxyphenyl)methyl]pyrrolidin-3-yl N-[(1-fluorocyclopropyl)methyl]carbamate] | < 10 | < 10 | 10 to 20 | < 10 |
| COc1ccc(C[C@H]2NC[C@H](O)[C@H]2OC(=O)NCc2cnoc2)cc1 [V188383, (2R,3S,4S)-4-hydroxy-2-[(4-methoxyphenyl)methyl]pyrrolidin-3-yl N-(1,2-oxazol-4-ylmethyl)carbamate] | < 10 | < 10 | < 10 | < 10 |
| COc1ccc(C[C@H]2NC[C@H](O)[C@H]2OC(=O)NCc2cnsc2)cc1 [V188384, (2R,3S,4S)-4-hydroxy-2-[(4-methoxyphenyl)methyl]pyrrolidin-3-yl N-(1,2-thiazol-4-ylmethyl)carbamate] | < 10 | < 10 | < 10 | < 10 |
| COc1ccc(C[C@H]2NC[C@H](O)[C@H]2OC(=O)NCC=C(C)C)cc1 [V190411, (2R,3S,4S)-4-hydroxy-2-[(4-methoxyphenyl)methyl]pyrrolidin-3-yl N-(3-methylbut-2-en-1-yl)carbamate] | < 10 | 10 to 20 | 10 to 20 | 10 to 20 |
| COc1ccc(C[C@H]2NC[C@H](O)[C@H]2OC(=O)NCCC(C)(C)O)cc1 [V190413, (2R,3S,4S)-4-hydroxy-2-[(4-methoxyphenyl)methyl]pyrrolidin-3-yl N-(3-hydroxy-3-methylbutyl)carbamate] | < 10 | 10 to 20 | 20 to 30 | 10 to 20 |
| COc1ccc(C[C@H]2NC[C@H](O)[C@H]2OC(=O)NCCc2c(C)noc2C)cc1 [V190414, (2R,3S,4S)-4-hydroxy-2-[(4-methoxyphenyl)methyl]pyrrolidin-3-yl N-[2-(3,5-dimethyl-1,2-oxazol-4-yl)ethyl]carbamate] | 20 to 30 | > 30 | > 30 | > 30 |
| COc1ccc(C[C@H]2NC[C@H](O)[C@H]2OC(=O)NCCn2nc(C)cc2C)cc1 [V190415, (2R,3S,4S)-4-hydroxy-2-[(4-methoxyphenyl)methyl]pyrrolidin-3-yl N-[2-(3,5-dimethylpyrazol-1-yl)ethyl]carbamate] | > 30 | > 30 | > 30 | > 30 |
| COc1ccc(C[C@H]2NC[C@H](O)[C@H]2OC(=O)NCCc2cnoc2)cc1 [V190449, (2R,3S,4S)-4-hydroxy-2-[(4-methoxyphenyl)methyl]pyrrolidin-3-yl N-[2-(1,2-oxazol-4-yl)ethyl]carbamate] | < 10 | < 10 | < 10 | < 10 |
| O=C(NCC[C@@H]1CCCN1)O[C@@H]1[C@@H](O)CN[C@@H]1Cc1ccc(-c2ccccc2)cc1 [V190505, (2R,3S,4S)-2-{[1,1′-biphenyl]-4-ylmethyl}-4-hydroxypyrrolidin-3-yl N-{2-[(2S)-pyrrolidin-2-yl]ethyl}carbamate] | < 10 | < 10 | < 10 | < 10 |

Further lines, with some results ahead:

| IC50 [1] [µM] | IC50 [2] [µM] | IC50 [4] [µM] | SMILES | IC50 [3] [µM] |
| --- | --- | --- | --- | --- |
| < 10 | < 10 | 10 to 20 | CCCOc1ccc(C[C@H]2NC[C@H](O)[C@H]2OC(=O)NCc2ccccc2)cc1 [V188376, (2R,3S,4S)-4-hydroxy-2-[(4-propoxyphenyl)methyl]pyrrolidin-3-yl N-benzylcarbamate] | < 10 |
| < 10 | < 10 | < 10 | COc1ccc(C[C@H]2NC[C@H](O)[C@H]2OC(=O)NCc2ccc(C#N)cc2)cc1 [V188377, (2R,3S,4S)-4-hydroxy-2-[(4-methoxyphenyl)methyl]pyrrolidin-3-yl N-[(4-cyanophenyl)methyl]carbamate] | < 10 |
| < 10 | < 10 | < 10 | COc1ccc(C[C@H]2NC[C@H](O)[C@H]2OC(=O)NCc2ccc(F)cc2)cc1 [V188378, (2R,3S,4S)-4-hydroxy-2-[(4-methoxyphenyl)methyl]pyrrolidin-3-yl N-[(4-fluorophenyl)methyl]carbamate] | < 10 |
| < 10 | < 10 | < 10 | COc1ccc(C[C@H]2NC[C@H](O)[C@H]2OC(=O)NCc2cccc(F)c2)cc1 [V188379, (2R,3S,4S)-4-hydroxy-2-[(4-methoxyphenyl)methyl]pyrrolidin-3-yl N-[(3-fluorophenyl)methyl]carbamate] | < 10 |
| < 10 | < 10 | < 10 | COc1ccc(C[C@H]2NC[C@H](O)[C@H]2OC(=O)NCc2cc(F)cc(F)c2)cc1 [V188380, (2R,3S,4S)-4-hydroxy-2-[(4-methoxyphenyl)methyl]pyrrolidin-3-yl N-[(3,5-difluorophenyl)methyl]carbamate] | < 10 |
| < 10 | < 10 | < 10 | Cn1cc(-c2ccc(C[C@H]3NC[C@H](O)[C@H]3OC(=O)NCc3ccccc3)cc2)nn1 [V188392, (2R,3S,4S)-4-hydroxy-2-{[4-(1-methyl-1,2,3-triazol-4-yl)phenyl]methyl}pyrrolidin-3-yl N-benzylcarbamate] | < 10 |
| < 10 | < 10 | < 10 | COc1ccc(C[C@H]2NC[C@H](O)[C@H]2OC(=O)NCc2ccc(F)c(F)c2)cc1 [V190408, (2R,3S,4S)-4-hydroxy-2-[(4-methoxyphenyl)methyl]pyrrolidin-3-yl N-[(3,4-difluorophenyl)methyl]carbamate] | < 10 |
| < 10 | < 10 | 10 to 20 | COc1ccc(C[C@H]2NC[C@H](O)[C@H]2OC(=O)NCc2cccc3cn[nH]c23)cc1 [V190459, (2R,3S,4S)-4-hydroxy-2-[(4-methoxyphenyl)methyl]pyrrolidin-3-yl N-(1H-indazol-7-ylmethyl)carbamate] | < 10 |
| < 10 | < 10 | 10 to 20 | O=C(NCc1cccc(F)c1)O[C@@H]1[C@@H](O)CN[C@@H]1Cc1ccc(F)cc1 [V190506, (2R,3S,4S)-2-[(4-fluorophenyl)methyl]-4-hydroxypyrrolidin-3-yl N-[(3-fluorophenyl)methyl]carbamate] | < 10 |
